# Paper PMC11558128 (Advanced Science, 2024)
# Where a chain is given by its changes, count along the chain named. Positions of bridges follow the written chain, without caps; N, C: chain ends. Residues, ends and D or L forms follow the SMILES beside them.
# Key:
# Assay in all cases: cell-based
# [1] = target: T1, rKv4.2 (Rattus norvegicus, UniProt Q63881); settings: whole-cell patch clamp, HEK293T; mean ± SEM, n = 3-8; SEM; read-out: IC50 on rKv4.2 WT
# T1 construct: expressed in transfected cells; host or cells: HEK293T
# T1 sequence (Q63881 1-630): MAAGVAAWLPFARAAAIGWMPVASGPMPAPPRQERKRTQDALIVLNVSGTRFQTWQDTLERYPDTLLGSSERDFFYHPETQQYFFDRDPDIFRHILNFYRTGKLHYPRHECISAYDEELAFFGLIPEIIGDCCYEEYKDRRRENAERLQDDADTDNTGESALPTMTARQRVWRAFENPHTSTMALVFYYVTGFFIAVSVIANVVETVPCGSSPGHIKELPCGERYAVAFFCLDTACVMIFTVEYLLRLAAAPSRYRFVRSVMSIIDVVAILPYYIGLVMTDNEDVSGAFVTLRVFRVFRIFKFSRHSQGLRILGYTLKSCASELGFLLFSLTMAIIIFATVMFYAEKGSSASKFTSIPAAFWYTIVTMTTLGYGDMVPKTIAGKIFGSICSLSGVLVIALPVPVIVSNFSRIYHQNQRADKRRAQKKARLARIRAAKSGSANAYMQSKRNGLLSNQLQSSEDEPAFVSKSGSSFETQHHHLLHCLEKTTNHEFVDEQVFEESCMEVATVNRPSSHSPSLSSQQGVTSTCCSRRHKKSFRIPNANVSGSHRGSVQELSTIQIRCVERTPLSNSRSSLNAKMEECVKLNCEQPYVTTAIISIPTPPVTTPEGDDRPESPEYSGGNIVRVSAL
# [2] = target: T2, rKv4.3 (Rattus norvegicus, UniProt Q62897); settings: whole-cell patch clamp, HEK293T; held at -80 mV, step to 0 mV; mean ± S.E.M., n = 3-8; SEM
# T2 construct: expressed in transfected cells; host or cells: HEK293T
# T2 sequence (Q62897 1-655): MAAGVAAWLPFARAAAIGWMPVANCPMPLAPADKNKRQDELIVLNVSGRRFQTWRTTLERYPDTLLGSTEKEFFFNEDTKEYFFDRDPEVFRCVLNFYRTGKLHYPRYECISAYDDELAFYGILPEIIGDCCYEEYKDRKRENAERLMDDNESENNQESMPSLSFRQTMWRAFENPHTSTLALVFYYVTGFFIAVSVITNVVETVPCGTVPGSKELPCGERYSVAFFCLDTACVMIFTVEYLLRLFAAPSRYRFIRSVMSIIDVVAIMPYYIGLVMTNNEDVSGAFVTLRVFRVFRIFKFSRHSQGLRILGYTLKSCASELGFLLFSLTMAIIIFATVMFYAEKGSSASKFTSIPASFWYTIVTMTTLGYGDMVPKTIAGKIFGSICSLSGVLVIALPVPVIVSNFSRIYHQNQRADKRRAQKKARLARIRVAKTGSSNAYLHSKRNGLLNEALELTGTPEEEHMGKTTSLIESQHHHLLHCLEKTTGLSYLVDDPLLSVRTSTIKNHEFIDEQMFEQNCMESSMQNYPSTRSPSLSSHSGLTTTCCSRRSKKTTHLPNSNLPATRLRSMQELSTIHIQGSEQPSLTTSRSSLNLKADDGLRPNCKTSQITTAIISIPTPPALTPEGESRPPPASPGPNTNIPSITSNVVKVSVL
# [3] = target: T3, rKv4.2 T280A (Rattus norvegicus, UniProt Q63881, T280A); settings: mean ± SEM
# T3 construct: expressed in transfected cells; host or cells: HEK293T
# T3 sequence (Q63881 1-630 T280A): T1 sequence (Q63881 1-630) with T280A
# [4] = target: T4, rKv4.2 D284K (Rattus norvegicus, UniProt Q63881, D284K); settings: mean ± SEM; SEM
# T4 construct: expressed in transfected cells; host or cells: HEK293T
# T4 sequence (Q63881 1-630 D284K): T1 sequence (Q63881 1-630) with D284K
smiles,measurement,setting,value
"CC[C@H](C)[C@@H]1NC(=O)[C@@H]2CSSC[C@@H]3NC(=O)[C@H](C(C)C)NC(=O)[C@H](CC(C)C)NC(=O)[C@H](CC(N)=O)NC(=O)[C@@H]4CCCN4C(=O)[C@H](CCCNC(=N)N)NC(=O)[C@H](CSSC[C@H](NC(=O)[C@@H](N)CC(=O)O)C(=O)N[C@@H](CC(C)C)C(=O)NCC(=O)N[C@@H](C)C(=O)N[C@@H](Cc4ccccc4)C(=O)N[C@@H](CCCNC(=N)N)C(=O)N[C@@H](CCCCN)C(=O)N2)NC(=O)[C@H](CSSC[C@@H](C(=O)N[C@@H](CCCCN)C(=O)N[C@@H](Cc2ccc(O)cc2)C(=O)N[C@H](C(=O)N[C@@H](Cc2ccccc2)C(N)=O)C(C)C)NC(=O)[C@H](Cc2c[nH]c4ccccc24)NC(=O)[C@H](CCCNC(=N)N)NC(=O)[C@H](Cc2cnc[nH]2)NC(=O)[C@H](CC(C)C)NC(=O)[C@H](CCCNC(=N)N)NC(=O)[C@H](CO)NC3=O)NC(=O)[C@H](CCCCN)NC(=O)[C@H](CC(=O)O)NC(=O)[C@H](CC(N)=O)NC(=O)[C@H](CC(=O)O)NC(=O)[C@@H]2CCCN2C1=O [mGpTx1] (H-DCLGAFRKCIPDNDKCCRPNLVCSRLHRWCKYVF-NH2; disulfide 2-17, 9-23, 16-30)",IC50,[1],81 ± 16 nM
same,IC50,[2],56 ± 4.8 nM
same,IC50,[3],150 ± 32 nM
same,IC50,[4],663 ± 179 nM
